These results are taken from US20070213359A1 (ACADIA Pharmaceuticals Inc., priority 2005, published 2007).

Like-named read-outs stand apart in the source and are kept apart here.

One assay deals with T1, GHSR1a receptor (Homo sapiens, UniProt Q92847).
T1 construct: expressed in transfected cells; host or cells: HEK293 (membranes)
The assay can be described thus: 125I-Ghrelin binding assay. The settings on record: Binding pKi, displacement of 125I-ghrelin (0.053 nM), membranes of HEK293 cells transfected with GHSR1a; Cheng-Prussoff; '—' not defined. As for the experimental part: Plasmid DNA containing the GHSR1a receptor (12.5 ug/dish) in 0.675 ml DMEM was transfected into the cells by mixing with 180 ul PolyFect, 15 min later mixing in 2.25 ml 10% CS/DMEM, and transferring the mixture into the dish. At 16-18 h post transfection, medium was replaced with 25 ml fresh 10% FCS/1% PSG/DMEM to each dish for another 18-20 h. At approximately 48 hours post-transfection, cells were harvested in ice-cold membrane buffer (20 mM HEPES, 6 mM MgCl2, 1 mM EDTA, pH to 7.2) using a cell scraper, and pelleted by centrifugation.
Pelleted cells were added to a nitrogen cavitation chamber and 900 bar of pressure applied for 30 min. The pressure was slowly released the cavitated cells collected in 50 ml falcon tubes. The tubes were centrifuged at 1000 rpm, 4° C. for 10 min, and the supernatant collected. This centrifugation and collection was repeated two more times until the supernatant was free of precipitate (membranes are still in suspension). The supernatant was poured into a 50 ml centrifuge tube and centrifuged at 10.000 rpm, 4° C. for 20 min. The supernatant was discarded and the pellet re-suspended in 750 μl membrane binding buffer using a chilled 1 ml syringe with 25G5/8 needle to re-suspend membranes. The protein concentration was determined using the BioRad Protein Assay Dye Reagent according to the manufacturers instructions. The protein concentration was adjusted to 5 mg/ml and aliquots snap-frozed and stored at −80 C until use.
Membranes were thawed rapidly; diluted with binding buffer (25 mM Hepes+5 mM MgCl2, 1 mM CaCl2, 2.5 mM EDTA and 0.2% BSA) to a protein concentration of 0.8 ug/30 ul and placed on ice. 96-well plates (U-bottom wells) were prepared with serial dilutions (8 doses, 40 ul/w) of the test compounds. Membranes (30 uL/well) were then added, and incubated with test ligands for 30 min at room temperature with shaking. […] Binding was terminated by filtration through GF/B filters (presoaked with 0.1% polyethylenimine) with a Brandel 96-well harvester. The filters were washed with ice-cold binding buffer (150 ml/plate) and allowed to air-dry for 30 min. 50 ul MicroScient-20 cocktail was added to each dried well, the plates were sealed, and counted for 2 min/well using a TopCount scintillation counter (Packard).
Background: Loss of bound radioactivity is the signal in a displacement assay; it reports binding, not function.

A further assay addresses Ghrelin receptor (Homo sapiens, UniProt Q92847). Kind of assay: Receptor Selection and Amplification Technology (R-SAT) assay. Type of assay: cell-based. Set-up: expressed in transfected cells; host or cells: NIH3T3. The following applies: for Emax: read-out: RSAT Eff(%); for IC50: '—' not defined (nd used separately), read-out: RSAT pIC50 (converted).
The mark [1] stands for this setting: negative logarithm of ligand concentration causing 50% inhibition of constitutive receptor response, transfected NIH3T3 cells.
Setting [2] is: percent inhibition at saturating ligand, normalized to reference ligand Substance P analog = 100%.

Sequence of Ghrelin receptor (Q92847 whole entry): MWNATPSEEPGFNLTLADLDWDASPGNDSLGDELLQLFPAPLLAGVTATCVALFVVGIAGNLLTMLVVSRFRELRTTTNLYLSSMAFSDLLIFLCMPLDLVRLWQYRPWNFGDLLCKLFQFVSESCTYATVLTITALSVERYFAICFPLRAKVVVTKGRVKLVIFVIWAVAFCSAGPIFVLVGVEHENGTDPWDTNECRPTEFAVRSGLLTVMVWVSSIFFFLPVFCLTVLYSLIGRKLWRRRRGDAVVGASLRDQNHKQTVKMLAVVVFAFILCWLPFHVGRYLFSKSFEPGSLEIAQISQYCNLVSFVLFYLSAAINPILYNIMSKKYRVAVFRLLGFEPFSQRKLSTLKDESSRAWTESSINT
T1 sequence (Q92847 whole entry): as above

A word on the Ki: it is a dissociation constant, usually derived from enzyme kinetics or from competition with a known ligand. Low readings indicate a stronger hold on the target, high ones a looser hold on the target. `COc1cccc2c(C(=O)NCc3cccc(C)c3)cn(CCCN3[C@@H]4CC[C@H]3CC(CC(=O)c3ccccc3)C4)c12` (stereo partly drawn) had a Ki on GHSR1a receptor of 63.1 nM. With `CC(=O)c1cn(CC(C)CN2CCC(O)(Cc3ccccc3)CC2)c2ccccc12` (stereo not drawn), the Emax at Ghrelin receptor was -3%. Still for that read-out and setting: with `CC(=O)c1cn(CCCCN2CCC(O)(Cc3ccccc3)CC2)c2ccccc12` the figure was 24%; with `CC(=O)c1cn(CCCCN2C3CCC2CC(O)(c2ccc(F)cc2)C3)c2ccccc12` (stereo not drawn), 2%. `CCC(=O)c1cn(CCCN2C3CCC2CC(O)(c2ccc(F)cc2)C3)c2ccccc12` (stereo not drawn): at Ghrelin receptor, the Emax worked out at 18%. Same read-out and setting: the result for `O=C(c1cn(CCCN2CCC(S(=O)(=O)c3ccc(Cl)cc3)CC2)c2ccccc12)C(F)(F)F` reads 6%. Same read-out and setting: with `CCC(=O)c1cn(CCCN2CCC(S(=O)(=O)c3ccc(Cl)cc3)CC2)c2ccccc12` the figure was 1%; with `CCN(CC)C(=O)C1CCCN(CCCn2cc(C(C)=O)c3cccc(OC)c32)C1` (stereo not drawn), 16%. The same measure, in the same setting: the result for `COc1cccc2c(C(C)=O)cn(CCCN3C4CCC3CC(O)(c3ccc(F)cc3)C4)c12` (stereo not drawn) reads 3%; that for `CC(=O)c1cn(CCCN2CCC(CCOc3ccc(Cl)cc3)CC2)c2c(Cl)cccc12`, 53%.

For `CC(=O)c1cn(CCCN2CCN(CCOc3ccc(Cl)cc3)CC2)c2c(C)cccc12`, at Ghrelin receptor, the Emax amounted to 53%. The same measure, in the same setting: with `CC(=O)c1cn(CCCN2CCN(CCOc3ccc(Cl)cc3)CC2)c2c(Br)cccc12` the figure was 12%; with `COc1cccc2c(C(=O)C3CC3)cn(CCCN3CCN(CCOc4ccc(Cl)c5ccccc45)CC3)c12`, 44%; with `CC(=O)c1cn(CCCN2CCN(CCOc3ccc(Cl)cc3)CC2)c2c(Cl)cccc12`, 32%. Still for that read-out and setting: the result for `COc1cccc2c(C(=O)NCc3cccc(C)c3)cn(CCCN3CCN(CCOc4ccc(Cl)c5ccccc45)CC3)c12` reads 2%. The same measure, in the same setting: with `COc1cccc2c(C(=O)NCc3cccc(Cl)c3)cn(CCCN3CCN(CCOc4ccc(Cl)c5ccccc45)CC3)c12` the figure was 59%; with `CC(=O)c1c(C)n(CCCN2CCC3(CC2)CC(=O)c2ccccc2O3)c2c(Br)cccc12`, 8%; with `CCc1cccc2c(C(C)=O)cn(CCCN3CCCC(Oc4ccc(Cl)cc4)C3)c12` (stereo not drawn), 13%. `COc1cccc2c(C(C)=O)cn(CC(C)CN3CCC4(CC3)CC(=O)c3ccccc3O4)c12` (stereo not drawn): at Ghrelin receptor, the Emax is 55%. On to `CC(=O)c1cn(CCCN2CCC(CCOc3ccc(Cl)cc3)CC2)c2c(C#N)cccc12`, for which the Emax at Ghrelin receptor came to 27%. In the case of `CC(=O)c1c(C)n(CCCN2CCN(CCOc3ccc(Cl)cc3)CC2)c2c(Br)cccc12`, the Emax on Ghrelin receptor was -13%.

On to `CC(=O)c1c(C)n(CCCN2CCC(c3nc(-c4ccncc4)no3)CC2)c2c(Br)cccc12`, for which the Emax on Ghrelin receptor is 25%. Still for that read-out and setting: the result for `CC(=O)c1c(C)n(CCCN2CCC(c3nc(-c4cccnc4)no3)CC2)c2c(Br)cccc12` reads 12%. Still for that read-out and setting: with `CCc1cccc2c(C(C)=O)cn(CCCN3CCN(CCOc4ccc(Cl)cc4)CC3)c12` the figure was 24%; with `CCc1cccc2c(C(C)=O)cn(CCCN3CCC(c4nc(-c5cccnc5)no4)CC3)c12`, 61%; with `COc1cccc2c(C(C)=O)cn(CC(C)CNCCOc3ccccc3)c12` (stereo not drawn), 29%.

As to `COc1cccc2c(C(C)=O)cn(CC(C)CN3CCN(CCOc4ccccc4)CC3)c12` (stereo not drawn), the Emax at Ghrelin receptor is -7%. Turning to `COc1cccc2c(C(C)=O)cn(CC(C)CN3CCCN(CCc4ccccc4)CC3)c12` (stereo not drawn), at Ghrelin receptor, the Emax is 31%. The same measure, in the same setting: with `COc1cccc2c(C(C)=O)cn(CC(C)CN3CCC(c4nc(-c5ccncc5)no4)CC3)c12` (stereo not drawn) the figure was 78%. On to `COc1cccc2c(C(C)=O)cn(CC(C)CN3CCC(c4nc(-c5cccnc5)no4)CC3)c12` (stereo not drawn), for which the Emax at Ghrelin receptor turned out to be 83%. Same read-out and setting: the result for `COc1cccc2c(C(=O)Cc3ccccc3)cn(CCCN3CCN(CCOc4ccc(Cl)c5ccccc45)CC3)c12` reads 46%; that for `CC(=O)c1cn(CCCN2CCN(CCOc3ccc(Cl)cc3)CC2)c2c(C#N)cccc12`, 4%; that for `CC(=O)c1cn(CCCNCCOc2ccccc2)c2c(C#N)cccc12`, 11%.

For the compound `CC(=O)c1cn(CCCN2CCN(CCOc3ccc(Cl)c4ccccc34)CC2)c2c(C#N)cccc12`, the Emax on Ghrelin receptor was determined as 53%. With `CC(=O)c1cn(CCCN2CCCC(Cc3ccccc3Cl)C2)c2c(C)cccc12` (stereo not drawn), the Emax on Ghrelin receptor is 38%.

On to `CC(=O)c1cn(CCCN2CCC(Cc3ccccc3Cl)C2)c2c(C)cccc12` (stereo not drawn), for which the Emax on Ghrelin receptor turned out to be 47%. With `CC(=O)c1cn(CCCN2C3CCC2CC(CC(=O)c2ccc(Cl)cc2)C3)c2c(C)cccc12` (stereo not drawn), the Emax on Ghrelin receptor turned out to be 19%. Take `CC(=O)c1cn(CCCN2CCC3(CC2)CC(=O)c2ccccc2O3)c2c(Br)cccc12`: on Ghrelin receptor, the Emax was determined as 3%. Turning to `CC(=O)c1cn(CCCN2CCCC(Cc3ccccc3Cl)C2)c2c(Br)cccc12` (stereo not drawn), on Ghrelin receptor, the Emax was -18%.

In the case of `CC(=O)c1cn(CCCN2C3CCC2CC(CC(=O)c2ccc(Cl)cc2)C3)c2c(Br)cccc12` (stereo not drawn), the Emax on Ghrelin receptor was 33%. For `CC(=O)c1cn(CCCN2C3CCC2CC(Oc2ccccc2Cl)C3)c2c(Br)cccc12` (stereo not drawn), the Emax at Ghrelin receptor is 65%. On the same count and under the same terms, the result for `COc1cccc2c(C(=O)C3CC3)cn(CCCN3CCCC(Cc4ccccc4Cl)C3)c12` (stereo not drawn) reads 28%; that for `CC(=O)c1cn(CCCN2CCC3(CC2)CC(=O)c2ccccc2O3)c2c(Cl)cccc12`, 40%; that for `CC(=O)c1cn(CCCN2CCCC(Oc3ccc(Cl)cc3)C2)c2c(Cl)cccc12` (stereo not drawn), 7%.

Take `CC(=O)c1cn(CCCN2CCCC(Cc3ccccc3Cl)C2)c2c(Cl)cccc12` (stereo not drawn): on Ghrelin receptor, the Emax came out at 47%. With `CC(=O)c1cn(CCCN2CCC(Cc3ccccc3Cl)C2)c2c(Cl)cccc12` (stereo not drawn), the Emax on Ghrelin receptor came out at 37%.

Regarding `CC(=O)c1cn(CCCN2C3CCC2CC(Oc2ccccc2Cl)C3)c2c(Cl)cccc12` (stereo not drawn), at Ghrelin receptor, the Emax stood at 60%. The same measure, in the same setting: with `COc1cccc2c(C(=O)c3ccccc3)cn(CCCN3CCCC(Oc4ccc(Cl)cc4)C3)c12` (stereo not drawn) the figure was 48%. On to `COc1cccc2c(C(=O)NCc3cccc(C)c3)cn(CCCN3CCCC(Oc4ccc(Cl)cc4)C3)c12` (stereo not drawn), for which the Emax on Ghrelin receptor is 14%. On the same count and under the same terms, the result for `COc1cccc2c(C(=O)NCc3cccc(Cl)c3)cn(CCCN3CCCC(Oc4ccc(Cl)cc4)C3)c12` (stereo not drawn) reads 31%; that for `CC(=O)c1c(C)n(CCCNCCOc2ccccc2)c2c(Br)cccc12`, 5%.

As to `CCc1cccc2c(C(C)=O)cn(CCCN3CCN(CCOc4ccc(Cl)c5ccccc45)CC3)c12`, the Emax on Ghrelin receptor turned out to be 29%. The same measure, in the same setting: the result for `CC(=O)c1cn(CCCNC2Cc3ccccc3C2)c2c(C#N)cccc12` reads 6%; that for `CC(=O)c1cn(CCCN2CCCC(Oc3ccc(Cl)cc3)C2)c2c(C)cccc12` (stereo not drawn), -2%; that for `COc1cccc2c(C(=O)NCC(C)C)cn(CCCN3CCCC(Oc4ccc(Cl)cc4)C3)c12` (stereo not drawn), 9%. As to `COc1cccc2c(C(C)=O)cn(CCCN3CCC(Oc4ccc(F)cc4)CC3)c12` [drawing 241], the IC50 at Ghrelin receptor (setting [1]) is 2.51 nM. Moreover, the “RSAT Eff(%)” value at Ghrelin receptor (setting [2]) is reported as 104%. With `COc1cccc2c(C(C)=O)cn(CCCN3CCC(Oc4ccc(F)cc4)CC3)c12` [drawing 256], the IC50 on Ghrelin receptor ([…]) is 3.98 nM. Also, the Emax at Ghrelin receptor worked out at 119%. `CC(=O)c1cn(CCCN2CCC(c3nc4ccccc4s3)CC2)c2ccccc12` [drawing 462]: the IC50 at Ghrelin receptor (setting [1]) was 100 nM. Besides, the Emax at Ghrelin receptor (setting [2]) was 115%. Regarding `CC(=O)c1cn(CCCN2CCC(c3nc4ccccc4s3)CC2)c2ccccc12` [drawing 466], on Ghrelin receptor (setting [1]), the IC50 was 126 nM. For the same compound, the “RSAT Eff(%)” value at Ghrelin receptor (setting [2]) came out at 99%. For `CC(=O)c1cn(CCCN2CCC(Oc3ccccc3Cl)CC2)c2ccccc12` [drawing 499], the Emax at Ghrelin receptor (setting [2]) was found to be 105%. For the compound `CC(=O)c1cn(CCCN2CCC(Oc3ccc(F)cc3)CC2)c2ccccc12.O=C(O)C(=O)O` [drawing 520], the IC50 at Ghrelin receptor (setting [1]) was 251 nM. Besides, the “RSAT Eff(%)” value at Ghrelin receptor (setting [2]) amounted to 128%. As to `COc1ccccc1C1CCN(CCCn2cc(C(C)=O)c3ccccc32)CC1` [drawing 533], the IC50 on Ghrelin receptor (setting [1]) is 316 nM. Also, the Emax on Ghrelin receptor (setting [2]) was 109%. For the compound `O=C(NCc1cccc(Cl)c1)c1cn(CCCN2CCC(Oc3ccc(F)cc3)CC2)c2ccccc12.O=C(O)C(=O)O` [drawing 596], the “RSAT Eff(%)” value on Ghrelin receptor came out at 142%.
